The subject of one series is Swiss Webster mice. Briefly: Formalin test. The settings on record: orally; GL-IV-03 10 mg/kg; ketoprofen 30 mg/kg. In kind it is in vivo, mouse. As for the experimental part:
Webster mice were treated orally four days in advance with indicated compounds and doses before the injection of 2% formalin in the right hind paw. Mice were evaluated during the first 5 min (phase 1) and after 20 minutes (phase 2) for 5 minutes in 5 seconds intervals Licking and biting the right hind paw during a 5 second interval was noted and combined as total time addressing the injected paw. Data is given as mean with SEM (n =8). ** indicate p<0.01 (unpaired t-test).
The antinociceptive effect of GL-IV-03 was investigated with the formalin test. Paw injections of formalin elicited a biphasic pain response separated in time (1-5 minutes and 20-60 minutes). […] Sensorimotor impairment and sedation were investigated with mice that were trained to balance on a rotating rod over a period of three minutes (rotarod). The amount of time that mice remained balanced on the rod after intraperitoneal (i.p.) and oral (p.o.) treatment with GL-IV-03 and MP-IV-010 is summarized in FIG. 7B-7C. […] The effect was similar to non-steroidal anti-inflammatory drug ketoprofen at 30 mg/kg. Sedation and inhibition of sensorimotor coordination can influence licking and biting pain behaviors, prompting rotarod studies for GL-IV-03 and MP-IV-010. […] In contrast to diazepam, a benzodiazepine with high affinity for the α1β2/3γ2 and other GABAAR subtypes, was sedating at 5 mg/kg.
Formalin test. […]

The target of the next series is HERG (Homo sapiens, UniProt Q12809). In words: PDSP primary HERG binding. The settings on record: PDSP primary screening. As for the experimental part:
(§1) Because reduction of NO could not be reversed by GABAAR antagonists, the possible binding of MP-IV-010 to other cellular receptors was evaluated in collaboration with the NIMH Psychoactive Drug Screening Program.
(§2) Psychoactive Drug Screening Program. Detailed protocols for the primary and secondary radioligand binding assays can be found in the National Institute of Mental Health's Psychoactive Drug Screening Program (NIMH PDSP) Assay Protocol Book. Briefly, primary and secondary radioligand binding assays are carried out in a final of volume of 125 μL per well in appropriate binding buffer. The radioactive ligand concentration is close to the Kd. Total binding and nonspecific binding are determined in the absence and presence of 10 μM of appropriate reference compound, respectively. In brief, plates are usually incubated at room temperature and in the dark for 90 min. Reactions are stopped by vacuum filtration onto 0.3% polyethyleneimine (PEI) soaked 96-well filter mats using a 96-well Filtermate harvester, followed by three washes with cold PBS buffer. Scintillation cocktail is then melted onto the microwave-dried filters on a hot plate and radioactivity counted in a Microbeta counter. The data (n=6) were analyzed by nonlinear regression.

Another series deals with Beta2 (Homo sapiens, UniProt P07550). In words: PDSP primary binding Beta2. Particulars: PDSP primary screening. On the procedure:
as §1, §2

A further series concerns the target Alpha1A (Homo sapiens, UniProt P35348). Briefly: PDSP primary binding Alpha1A. Particulars: PDSP primary screening. On the procedure: as §1, §2
A further series addresses H4 (Homo sapiens, UniProt Q9H3N8). In words: PDSP primary binding H4. Particulars: PDSP primary screening. On the procedure:
as §1, §2

Another series concerns the target M5 (Homo sapiens, UniProt P08912). In words: PDSP primary binding M5. The settings on record: PDSP primary screening. On the procedure: as §1, §2
In a further series the target is Alpha2B (Homo sapiens, UniProt P18089). In words: PDSP primary binding Alpha2B. Particulars: PDSP primary screening. As for the experimental part:
as §1, §2

The target of another series is 5-HT2C (Homo sapiens, UniProt P28335). In words: PDSP primary binding 5-HT2C. Particulars: PDSP primary screening. As for the experimental part:
as §1, §2

In another series the target is Alpha2A (Homo sapiens, UniProt P08913). In words: PDSP primary binding Alpha2A. Particulars: PDSP primary screening. As for the experimental part: as §1, §2
Alpha2A, sequence (P08913 whole entry): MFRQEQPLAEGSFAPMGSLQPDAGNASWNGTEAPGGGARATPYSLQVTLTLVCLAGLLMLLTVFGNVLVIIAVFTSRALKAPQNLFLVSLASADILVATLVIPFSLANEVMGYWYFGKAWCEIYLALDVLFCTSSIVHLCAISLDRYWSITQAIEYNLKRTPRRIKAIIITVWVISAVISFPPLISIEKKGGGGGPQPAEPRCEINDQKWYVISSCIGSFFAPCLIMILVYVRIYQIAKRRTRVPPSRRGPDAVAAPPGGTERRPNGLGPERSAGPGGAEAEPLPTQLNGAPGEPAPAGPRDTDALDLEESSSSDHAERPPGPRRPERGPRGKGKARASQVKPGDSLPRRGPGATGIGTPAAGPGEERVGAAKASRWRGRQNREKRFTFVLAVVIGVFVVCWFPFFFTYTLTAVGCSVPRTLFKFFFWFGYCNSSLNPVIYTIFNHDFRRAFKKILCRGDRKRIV
In another series the target is M3 (Homo sapiens, UniProt P20309). In words: PDSP primary binding M3. The settings on record: PDSP primary screening. On the procedure:
as §1, §2

A further series addresses M2 (Homo sapiens, UniProt P08172). Briefly: PDSP primary binding M2. The settings on record: PDSP primary screening. On the procedure:
as §1, §2

In a further series the target is Beta1 (Homo sapiens, UniProt P08588). Briefly: PDSP primary binding Beta1. The settings on record: PDSP primary screening. As for the experimental part: as §1, §2
Beta1, sequence (P08588 whole entry): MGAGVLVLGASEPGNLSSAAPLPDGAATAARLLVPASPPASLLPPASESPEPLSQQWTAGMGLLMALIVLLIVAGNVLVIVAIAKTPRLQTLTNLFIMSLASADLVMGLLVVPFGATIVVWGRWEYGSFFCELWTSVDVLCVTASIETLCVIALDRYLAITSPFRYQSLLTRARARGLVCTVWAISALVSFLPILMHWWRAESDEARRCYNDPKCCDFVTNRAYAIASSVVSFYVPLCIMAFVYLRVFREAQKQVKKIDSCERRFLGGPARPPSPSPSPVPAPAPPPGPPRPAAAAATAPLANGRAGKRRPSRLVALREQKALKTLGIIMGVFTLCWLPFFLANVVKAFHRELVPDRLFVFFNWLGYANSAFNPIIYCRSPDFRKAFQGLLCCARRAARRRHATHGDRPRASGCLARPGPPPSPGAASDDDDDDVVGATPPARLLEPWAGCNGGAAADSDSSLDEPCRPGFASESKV
In another series the target is 5-HT2A (Homo sapiens, UniProt P28223). Briefly: PDSP primary binding 5-HT2A. Particulars: PDSP primary screening. On the procedure: as §1, §2
5-HT2A, sequence (P28223 whole entry): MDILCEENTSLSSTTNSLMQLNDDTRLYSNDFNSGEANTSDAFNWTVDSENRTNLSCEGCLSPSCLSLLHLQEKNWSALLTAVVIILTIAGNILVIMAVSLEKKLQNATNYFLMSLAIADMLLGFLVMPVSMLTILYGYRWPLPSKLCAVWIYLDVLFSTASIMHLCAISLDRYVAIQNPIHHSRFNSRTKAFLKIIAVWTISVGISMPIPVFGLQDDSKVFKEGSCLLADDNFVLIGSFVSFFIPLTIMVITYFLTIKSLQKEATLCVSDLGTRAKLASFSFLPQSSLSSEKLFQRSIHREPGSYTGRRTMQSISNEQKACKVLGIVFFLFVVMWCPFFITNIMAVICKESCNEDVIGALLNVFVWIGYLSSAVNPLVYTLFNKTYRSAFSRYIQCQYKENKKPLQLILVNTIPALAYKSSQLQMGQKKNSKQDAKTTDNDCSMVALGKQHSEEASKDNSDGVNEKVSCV
The target of a further series is T1, σ2 receptor (Homo sapiens, UniProt Q5BJF2).
T1 construct: expressed in transfected cells; host or cells: HEK cells (stably transfected)
T1 sequence (Q5BJF2 whole entry, species assumed): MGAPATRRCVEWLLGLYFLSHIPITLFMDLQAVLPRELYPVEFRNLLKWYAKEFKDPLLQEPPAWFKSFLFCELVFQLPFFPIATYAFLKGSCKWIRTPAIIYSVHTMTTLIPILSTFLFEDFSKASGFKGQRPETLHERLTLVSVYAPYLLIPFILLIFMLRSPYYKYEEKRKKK
In words: σ2 receptor binding (3H-ditolylguanidine, HEK cell lysate). On the procedure: as §2

The target in a further series is SERT (Homo sapiens, UniProt P31645). Briefly: PDSP primary binding SERT. Particulars: PDSP primary screening. On the procedure: as §1, §2

The values that follow come from US20240279232A1, “USE OF SUBSTITUTED 5-(4-METHYL-6-PHENYL-4H-BENZO[F]IMIDAZO[1,5-A][1,4] DIAZEPIN-3-YL)-1,2,4-O[…] THE TREATMENT OF INFLAMMATORY CONDITIONS” (priority 2021, published 2024).

H4, sequence (Q9H3N8 whole entry): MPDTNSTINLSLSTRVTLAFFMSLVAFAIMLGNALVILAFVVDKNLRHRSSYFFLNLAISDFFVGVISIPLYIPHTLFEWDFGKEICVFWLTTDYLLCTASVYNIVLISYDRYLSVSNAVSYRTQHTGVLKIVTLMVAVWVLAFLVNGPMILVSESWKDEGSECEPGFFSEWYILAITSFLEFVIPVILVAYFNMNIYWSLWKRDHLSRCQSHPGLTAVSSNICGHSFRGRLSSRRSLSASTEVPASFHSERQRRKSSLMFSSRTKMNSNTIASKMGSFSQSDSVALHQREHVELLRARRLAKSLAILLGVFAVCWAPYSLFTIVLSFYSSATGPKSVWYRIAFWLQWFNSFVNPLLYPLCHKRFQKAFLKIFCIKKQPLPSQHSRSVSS
Alpha2B, sequence (P18089 whole entry): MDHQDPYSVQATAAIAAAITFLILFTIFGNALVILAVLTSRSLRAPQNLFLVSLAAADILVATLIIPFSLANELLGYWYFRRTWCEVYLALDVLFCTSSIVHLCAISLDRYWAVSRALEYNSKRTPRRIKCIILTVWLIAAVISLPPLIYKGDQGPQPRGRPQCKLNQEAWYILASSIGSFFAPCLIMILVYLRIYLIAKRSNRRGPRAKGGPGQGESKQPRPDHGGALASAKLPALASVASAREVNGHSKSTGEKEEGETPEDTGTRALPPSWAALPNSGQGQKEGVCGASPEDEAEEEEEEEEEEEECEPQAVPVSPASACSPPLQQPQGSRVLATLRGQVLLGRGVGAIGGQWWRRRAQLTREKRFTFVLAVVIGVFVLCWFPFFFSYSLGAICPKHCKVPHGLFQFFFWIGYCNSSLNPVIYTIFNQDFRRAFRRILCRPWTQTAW
5-HT2C, sequence (P28335 33-458, species assumed): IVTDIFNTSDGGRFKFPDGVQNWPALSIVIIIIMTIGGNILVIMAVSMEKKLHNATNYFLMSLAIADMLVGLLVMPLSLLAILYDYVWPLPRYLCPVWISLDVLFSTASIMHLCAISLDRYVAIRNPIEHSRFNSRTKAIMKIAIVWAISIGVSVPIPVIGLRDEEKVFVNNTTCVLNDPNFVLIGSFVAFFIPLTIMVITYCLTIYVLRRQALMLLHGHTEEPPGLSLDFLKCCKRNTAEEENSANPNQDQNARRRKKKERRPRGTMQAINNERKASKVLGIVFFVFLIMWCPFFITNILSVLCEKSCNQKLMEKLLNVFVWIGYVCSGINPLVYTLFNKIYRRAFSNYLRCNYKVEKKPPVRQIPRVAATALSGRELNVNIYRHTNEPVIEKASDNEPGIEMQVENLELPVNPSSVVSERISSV
Alpha1A, sequence (P35348 whole entry): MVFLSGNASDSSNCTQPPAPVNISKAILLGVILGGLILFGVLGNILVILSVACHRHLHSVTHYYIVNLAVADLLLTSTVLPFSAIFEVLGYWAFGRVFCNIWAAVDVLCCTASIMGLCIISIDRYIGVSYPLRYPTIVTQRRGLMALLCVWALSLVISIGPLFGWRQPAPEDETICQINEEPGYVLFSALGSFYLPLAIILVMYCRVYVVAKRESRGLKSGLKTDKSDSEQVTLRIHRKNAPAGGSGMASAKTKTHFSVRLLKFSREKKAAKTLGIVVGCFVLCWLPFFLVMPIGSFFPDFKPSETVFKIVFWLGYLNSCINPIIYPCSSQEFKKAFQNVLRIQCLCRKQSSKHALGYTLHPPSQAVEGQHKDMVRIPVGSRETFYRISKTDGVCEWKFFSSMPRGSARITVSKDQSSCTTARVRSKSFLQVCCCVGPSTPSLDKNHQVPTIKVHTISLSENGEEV
HERG, sequence (Q12809 whole entry): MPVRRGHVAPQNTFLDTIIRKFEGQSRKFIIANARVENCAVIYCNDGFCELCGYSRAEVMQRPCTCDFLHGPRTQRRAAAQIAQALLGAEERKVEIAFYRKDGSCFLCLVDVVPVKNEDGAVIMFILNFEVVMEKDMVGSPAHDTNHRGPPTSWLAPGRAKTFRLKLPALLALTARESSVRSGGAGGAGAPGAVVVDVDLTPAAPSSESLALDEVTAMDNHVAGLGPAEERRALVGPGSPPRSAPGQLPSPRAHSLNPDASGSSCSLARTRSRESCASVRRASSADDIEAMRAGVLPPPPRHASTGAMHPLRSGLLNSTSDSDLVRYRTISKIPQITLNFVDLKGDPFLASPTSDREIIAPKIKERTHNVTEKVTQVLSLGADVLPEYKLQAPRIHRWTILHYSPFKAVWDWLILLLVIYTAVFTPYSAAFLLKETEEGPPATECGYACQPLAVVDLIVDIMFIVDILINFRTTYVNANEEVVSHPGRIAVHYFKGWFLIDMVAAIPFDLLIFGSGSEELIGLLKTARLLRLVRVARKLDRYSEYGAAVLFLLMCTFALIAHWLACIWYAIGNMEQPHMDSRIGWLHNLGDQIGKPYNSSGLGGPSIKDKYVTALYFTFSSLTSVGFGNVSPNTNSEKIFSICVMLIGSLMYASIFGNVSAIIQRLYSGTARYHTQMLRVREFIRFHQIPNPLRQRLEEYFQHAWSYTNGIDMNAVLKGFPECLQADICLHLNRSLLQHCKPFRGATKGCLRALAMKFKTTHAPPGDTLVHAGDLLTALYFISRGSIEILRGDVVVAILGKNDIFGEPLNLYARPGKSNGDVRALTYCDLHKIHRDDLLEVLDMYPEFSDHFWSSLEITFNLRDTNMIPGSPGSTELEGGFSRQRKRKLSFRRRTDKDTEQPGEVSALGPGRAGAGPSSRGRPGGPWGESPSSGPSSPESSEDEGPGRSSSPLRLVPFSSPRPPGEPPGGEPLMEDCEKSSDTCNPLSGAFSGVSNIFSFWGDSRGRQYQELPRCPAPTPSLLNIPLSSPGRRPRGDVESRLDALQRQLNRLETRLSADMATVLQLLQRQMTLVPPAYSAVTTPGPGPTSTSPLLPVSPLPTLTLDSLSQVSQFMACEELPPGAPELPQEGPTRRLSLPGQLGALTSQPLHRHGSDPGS
M2, sequence (P08172 whole entry): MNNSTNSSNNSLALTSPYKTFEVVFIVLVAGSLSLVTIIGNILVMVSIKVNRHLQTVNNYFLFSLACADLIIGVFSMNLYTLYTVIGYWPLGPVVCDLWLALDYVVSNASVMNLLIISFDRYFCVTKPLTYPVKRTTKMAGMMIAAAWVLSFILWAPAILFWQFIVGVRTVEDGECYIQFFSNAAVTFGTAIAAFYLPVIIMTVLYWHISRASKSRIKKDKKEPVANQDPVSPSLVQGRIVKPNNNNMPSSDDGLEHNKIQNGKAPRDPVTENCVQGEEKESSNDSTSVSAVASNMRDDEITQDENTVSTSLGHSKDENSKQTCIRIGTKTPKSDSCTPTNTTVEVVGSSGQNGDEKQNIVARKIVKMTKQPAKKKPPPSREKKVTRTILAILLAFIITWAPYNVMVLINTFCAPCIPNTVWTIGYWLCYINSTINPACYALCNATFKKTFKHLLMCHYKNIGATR

Consider `CCc1noc(-c2ncn3c2[C@@H](C)N=C(c2ccccc2F)c2cc(C4CC4)ccc2-3)n1` [GL-IV-03, (R)-5-(8-Cyclopropyl-6-(2-fluorophenyl)-4-methyl-4H-benzo[f]imidazo[1,5-a][1,4]diazepin-3-yl)-3-ethyl-1,2,4-oxadiazole], for which the “antinociceptive effect, formalin test (phase 1 and 2)” value with Swiss Webster mice is “antinociceptive effects in both acute pain (phase 1) and inflammation mediated pain (phase 2)”.

Broadly, the IC50 is the concentration that inhibits the measured activity by half. For `C#Cc1ccc2c(c1)C(c1ccccc1F)=N[C@H](C)c1c(-c3nc(C(C)C)no3)ncn1-2` [MP-IV-010, (R)-5-(8-ethynyl-6-(2-fluorophenyl)-4-methyl-4H-benzo[f]imidazo[1,5-a][1,4]diazepin-3-yl)-3-isopropyl-1,2,4-oxadiazole], the “Percent Competition HERG binding” value on HERG amounted to 29%. In addition, the “Percent Competition Beta2” value at Beta2 was found to be 20%. At Alpha1A, the “Percent Competition Alpha1A” value came to 2%. The “Percent Competition H4” value on H4 was determined as 6%. In addition, the “Percent Competition M5” value at M5 worked out at 26%. In addition, on Alpha2B, the “Percent Competition Alpha2B” value was found to be 29%. For the same molecule, the “Percent Competition 5-HT2C” value at 5-HT2C is listed as −2%. Moreover, the “Percent Competition Alpha2A” value at Alpha2A came out at 14%. For the same molecule, the “Percent Competition M3” value at M3 is 0%. Besides, at M2, the “Percent Competition M2” value stood at 10%. In addition, the “Percent Competition Beta1” value on Beta1 is on record as 6%. The “Percent Competition 5-HT2A” value on 5-HT2A is listed as −1%. Besides, the IC50 at σ2 receptor amounted to 5.2 µM. In addition, on σ2 receptor (PDSP primary screening), the “Percent Competition Sigma 2” value amounted to 64%. In addition, the “Percent Competition SERT” value on SERT is 22%.
